Results on 2 molecules are retold here after patent publication US9790211B2, “5-amino-quinoline-8-carboxamide derivatives as 5-HT4 receptor agonists” (SUVEN LIFE SCIENCES LIMITED, priority 2013, dated 2017).

Molecules are shown by their SMILES.

One experiment concerns Aβ1-42. As to the kind of experiment: Effect on CSF Aβ1-42 level (ELISA). Type of experiment: in vivo, Male Sprague Dawley Rat. The settings on record: p.o., two hour post treatment. How it is done:
The control group of male rats received a vehicle (reagent grade water) per orally by gavage at a dose volume of 10 mL/kg. The treated groups (6 rat per group) received a single dose of test compound (different doses) or DAPT (50.0 mg/kg). Two hour post dose of vehicle or test compounds, rats were anesthetized with isoflurane and CSF was collected by puncturing Cisterna magna using 0.5 mL syringes by utilizing stereotaxic frame. CSF samples were frozen in liquid nitrogen and stored at −80° C. until ELISA was performed.
• 1. CSF samples were thawed to RT and diluted with Tris Buffer Saline containing protease inhibitors at 1:10 ratio [15:150 μL (15 μL CSF+ 135 μL TBS], • 2. To this diluted CSF samples 0.15 mL of EIA buffer (1:1 ratio) was added. These diluted samples were subjected for Aβ1-42 level measurement by ELISA. Measurement of Aβ1-42 by ELISA Kit:
To investigate the role of an acute treatment of test compound on Aβ1-42 levels, expression of this protein was measured in CSF of treated and untreated rat by ELISA assay. The entire procedure was followed as described in ELISA kit manual (Mouse/Rat […], Cat No: 27720, IBL International, Hamburg, Germany).
Statistical analyses were performed using the Graph Pad Prism (Version 4). Data are Mean±SD of Aβ1-42 levels expressed as percentage of control values (rat which received regent grade water). Values were compared between the different groups by unpaired t test. The significance level was set at *p<0.05; **p<0.01; ***p<0.001.
Background: An ELISA detects its analyte on a solid surface through an enzyme-linked reagent.

The next experiment relates to sAPPα. As to the kind of experiment: Estimation of mice brain cortical sAPPα levels (ELISA). It is filed as in vivo. The settings on record: s.c., 60 minutes post treatment. How it is done:
The control group of mice received sterile water for injection subcutaneously (s.c.). […] Mice were sacrificed 60 minutes after the drug injection by cervical dislocation, the brains were quickly isolated and the cortex was dissected at −20° C. The cortex was immediately kept on a dry ice and weighed before being stored at −80° C. until Enzyme-linked immunosorbent assay (ELISA) was performed. • 1. Brain tissues were thawed and Tris Buffer Saline containing protease inhibitors (TBS, 4 times by volume) added (0.8 mL/200 mg tissues). • 2. Brain tissue samples were homogenized using glass-Teflon homogenizer at 10 strokes. The resulting homogenates were centrifuged at 15,000 rpm at 4° C. for 60 minutes. • 3. The supernatant was discarded and to the precipitate, 4 times volume (0.8 mL/200 mg tissues) of TBS was added. Again homogenized followed by centrifugation at 15,000 rpm 4° C. for 30 minutes. • 4. From the above centrifuged mixture the supernatant was discarded and 10 times volume of 6M Guanidine-HCl in 50 mM Tris buffer pH: 7.6 (500 μL/50 mg tissues) was added. The resulting solution was sonicated for 5 seconds, 4 times. • 5. Resulting mixture was incubated at the RT for 30 minutes, followed by centrifugation at 15,000 rpm, 4° C. for 30 minutes. From this 5 μL of supernatant solution was taken and diluted with 155 μL of EIA buffer (dilution factor 32). Measurement of sAPPα by ELISA Kit: To investigate the role of an acute treatment of test compound on sAPPα levels, we measured the expression of this protein in homogenates from the cortex of treated and untreated mice by ELISA assay. The entire procedure was followed as described in the ELISA kit manual (Mouse/Rat sAPPα ELISA, Catalog Number: JP27415, […], Hamburg, Germany). Statistical analyses were performed using the Graph Pad Prism (Version 4). Data are Mean±SD of sAPPa levels expressed as percentage of control values (mice which received water for injection). Values were compared between the different groups by using unpaired t test. The significance level was set at *p<0.05; […]; ***<0.001.

Experiment [1] concerns acetylcholine levels in the frontal cortex. As to the kind of experiment: Modulation of acetylcholine from the frontal cortex (microdialysis). It is filed as in vivo, male Wistar rats. The following applies: p.o. From the text:
Male Wistar rats (240-300 gram body weights) were stereotaxically implanted with a microdialysis guide cannula in the frontal cortex (AP: +3.2 mm, ML: −3.2 mm, DV: −1.5 mm). Co-ordinates were taken according to Paxinos and Watson (2007) with reference points taken from bregma and vertical from the skull. The rats were allowed to recover individually for five days in a round bottom Plexiglas bowl with free access to feed and water.
One day prior to the microdialysis experiment, rats were connected to a dual quartz lined two-channel liquid swivel (Instech. UK) on a counter balance lever arm, which allowed unrestricted movements of the animal. […]
On the day of study, probe was perfused at a constant flow rate of 1.5 (μL/min with artificial cerebrospinal fluid (aCSF; NaCl 147 mM. KCl 3.0 mM, MgCl2 1.0 mM, CaCl2. 2H2O 1.3 mM, NaH2PO4.2H2O 0.2 mM and Na2HPO4. 7H2O 1.0 mM, pH 7.2). A stabilization period of 2 h was maintained and five basal samples were collected at 20 minutes intervals. The compound of Example 18 or vehicle was administered and dialysate samples were collected at 20 minutes interval for an additional period of 4 hours. Dialysates were stored below −70° C. until quantitation of acetylcholine.
Acetylcholine in dialysate was quantified in the calibration range of 0.103 nmol-103.497 nmol using LC-MS/MS method. […]

`Nc1c(Cl)cc(C(=O)NCC2CCN(CC3CCOCC3)CC2)c2ncccc12.O=C(O)/C=C/C(=O)O` [Example 1, 5-Amino-6-chloro-N-{[1-(tetrahydro-2H-pyran-4-ylmethyl)-4-piperidinyl]methyl}quinoline-8-carboxamide hemifumarate]: the “decrease in the rat CSF Aβ1-42 levels” value in the experiment on Aβ1-42 (0.03 mg/kg) stood at 25%; in the experiment on Aβ1-42 (0.1 mg/kg), 21%; in the experiment with Aβ1-42 (0.3 mg/kg) it was 35%; with Aβ1-42 (1.0 mg/kg) it was 22%; with Aβ1-42 (3.0 mg/kg), 26%.

In the case of `Nc1c(Cl)cc(C(=O)NCC2CCN(CC3CCOCC3)CC2)c2ncccc12.O=C(O)C(O)C(O)C(=O)O` [Example 13, 5-Amino-6-chloro-N-{[1-(tetrahydro-2H-pyran-4-ylmethyl)-4-piperidinyl]methyl} quinoline-8-carboxamide L(+)-tartarate], the “increase in the mice brain cortical sAPPα levels” value in the experiment on sAPPα (0.3 mg/kg) is 39%; in the experiment on sAPPα (1.0 mg/kg) it was 41%; in the experiment on sAPPα (3.0 mg/kg) it was 46%; with sAPPα (10.0 mg/kg), 66%. Also, the “Area under the curve of acetylcholine change, frontal cortex (in words)” value in experiment [1] (10.0 mg/kg, vs vehicle, p<0.05) is given as “significant”. In addition, the “acetylcholine levels from the frontal cortex (in words)” value in experiment [1] (3.0 and 10.0 mg/kg, male Wistar rats) is “dose dependent increase”.
